In patent US20190343908A1, “Therapeutic Combination for the Treatment of Cancer” (Nerium Biotechnology Inc., priority 2011, published 2019):

Experiments:
[1] = test system: CALU-1 (non-small cell lung carcinoma); test: Sulforhodamine B viability assay, CALU-1; type: cell-based, human
Text: (§1) Three different viability assays were chosen to complement each other and yielded results dependent on concentration and cell line: the Methyl Tetrazolium dye assay, the Sulforhodamine B fluorescent dye assay, and the Crystal Violet dye assay.
(§2) The Sulforhodamine B and Crystal Violet assays provide information about protein and were used to complement the Methyl-Tetrazolium dye assay. […] It is used for the quantification of cellular proteins of cultured cells. The assay using Crystal Violet, a dye that binds electrostatically to proteins and stains DNA, provides a reliable, simple assay for measuring viability of cells.
(§3) The Methyl Tetrazolium, Sulforhodamine B, and Crystal Violet assays were used to assess cell viabilities. The incubation times were 24 hours, 48 hours, and 72 hours. The Nerium oleander extract Anvirzel™ (a hot water extract of oleander obtained from Salud Integral, Honduras) was tested in concentrations ranging from 0.01 ng/mL to 10 ng/mL.
(§4) Cells were detached by trypsinization (Trypsin-0.25% EDTA, Invitrogen, 25200-072) during the logarithmic phase of culture growth and plated in 96-well plates (18.000 cells/well) (Corning, Costar 359) in a final volume of 200 μl of medium per well. […] The absorbance was measured after 24 hours, 48 hours, and 72 hours of incubation.
For the Sulforhodamine B assay, 96-well plates were fixed by 10% trichloroacetic acid (Fluka, 91228) and were incubated at 4° C. for 1 hour. Afterwards, plates were rinsed with water and cells were stained with 0.4% Sulforhodamine B (Sigma, 341738), dissolved in 1% acetic acid (Carlo Ebra, 401422) for 15 minutes at room temperature (RT). The unbound stain was washed twice with 1% acetic acid. Finally, 10 mM Tris Buffer pH 10.5 (Sigma, T6791) was added to dissolve the dye.
(§5) The optical density of each plate was measured on a μQuant spectrophotometer and the data were analyzed with Gen5 software (μQuant Biomolecular Spectrophotometer MQX200 and Gen5™ Microplate Data Collection & Analysis software, BioTek® Instruments. Inc, April 2008). Absorbance was measured at 570 nm for all assays and a second wavelength was measured in order to subtract noise. For the Methyl-Tetrazolium assay this second wavelength was 630 nm and for the Sulforhodamine B and Crystal Violet assays it was 690 nm.

HT55 (colorectal cancer) = test: Crystal Violet viability assay, HT55; type: cell-based, human; set-up: key: absorbance at 570 nm (crystal violet), background wavelength subtracted
Text: as §1, §2, §3, §4
For the Crystal Violet assay, the medium was removed from the 96-well plates, the plates rinsed with PBS (Sigma, P3813) and then the cells were […] by the addition of 10% formalin (MERCK, 1.04003.2500) for 20 minutes at RT. Formalin was removed and 0.25% aqueous crystal violet (Sigma, HT901), dissolved in water, was added for 10 minutes at RT. Unbound Crystal Violet was rinsed by washing with water and finally 33% acetic acid was added to dissolve the dye.
as §5

Question: How did the “Average SRB 24 h” value ([1]; CALU-1 Run 1, 0.1 μg/ml CDDP) turn out when `N.N.[Cl][Pt][Cl]` [cisplatin] was run?
Answer: 1.457

Question: And the “Average SRB 48 h” value ([1]; CALU-1 Run 1, 0.1 μg/ml CDDP)?
Answer: 1.939

Question: And the “Average SRB 72 h” value ([1]; CALU-1 Run 1, 0.1 μg/ml CDDP)?
Answer: 1.598

Question: And the “Average SRB 24 h” value ([1]; CALU-1 Run 1, 1 μg/ml CDDP)?
Answer: 1.438

Question: What about the “Average SRB 48 h” value ([1]; CALU-1 Run 1, 1 μg/ml CDDP) of the same molecule?
Answer: 1.991

Question: And the “Average SRB 72 h” value ([1]; CALU-1 Run 1, 1 μg/ml CDDP)?
Answer: 1.5

Question: And the “Average SRB 24 h” value ([1]; CALU-1 Run 1, 10 μg/ml CDDP)?
Answer: 1.401

Question: What about the “Average SRB 48 h” value ([1]; CALU-1 Run 1, 10 μg/ml CDDP) of the same molecule?
Answer: 1.563

Question: What about the “Average SRB 72 h” value ([1]; CALU-1 Run 1, 10 μg/ml CDDP) of the same molecule?
Answer: 1.108

Question: And the “Average SRB 24 h” value ([1]; CALU-1 Run 1, 100 μg/ml CDDP)?
Answer: 1.348

Question: And the “Average SRB 48 h” value ([1]; CALU-1 Run 1, 100 μg/ml CDDP)?
Answer: 1.521

Question: And the “Average SRB 72 h” value ([1]; CALU-1 Run 1, 100 μg/ml CDDP)?
Answer: 1.299

Question: What about the “Average SRB 24 h” value ([1]; CALU-1 Run 2, 0.1 μg/ml CDDP) of the same molecule?
Answer: 1.437

Question: What about the “Average SRB 48 h” value ([1]; CALU-1 Run 2, 0.1 μg/ml CDDP) of the same molecule?
Answer: 1.79

Question: What about the “Average SRB 72 h” value ([1]; CALU-1 Run 2, 0.1 μg/ml CDDP) of the same molecule?
Answer: 2.674

Question: What about the “Average SRB 24 h” value ([1]; CALU-1 Run 2, 1 μg/ml CDDP) of the same molecule?
Answer: 1.725

Question: What about the “Average SRB 48 h” value ([1]; CALU-1 Run 2, 1 μg/ml CDDP) of the same molecule?
Answer: 1.837

Question: And the “Average SRB 72 h” value ([1]; CALU-1 Run 2, 1 μg/ml CDDP)?
Answer: 2.563

Question: What about the “Average SRB 24 h” value ([1]; CALU-1 Run 2, 10 μg/ml CDDP) of the same molecule?
Answer: 1.48

Question: What about the “Average SRB 48 h” value ([1]; CALU-1 Run 2, 10 μg/ml CDDP) of the same molecule?
Answer: 1.702

Question: And the “Average SRB 72 h” value ([1]; CALU-1 Run 2, 10 μg/ml CDDP)?
Answer: 2.434

Question: What about the “Average SRB 24 h” value ([1]; CALU-1 Run 2, 100 μg/ml CDDP) of the same molecule?
Answer: 1.318

Question: What about the “Average SRB 48 h” value ([1]; CALU-1 Run 2, 100 μg/ml CDDP) of the same molecule?
Answer: 1.541

Question: What about the “Average SRB 72 h” value ([1]; CALU-1 Run 2, 100 μg/ml CDDP) of the same molecule?
Answer: 1.575

Question: What about the “Average SRB 24 h” value ([1]; CALU-1 Run 3, 0.1 μg/ml CDDP, 24 h) of the same molecule?
Answer: 1.492

Question: What about the “Average SRB 48 h” value ([1]; CALU-1 Run 3, 0.1 μg/ml CDDP, 48 h) of the same molecule?
Answer: 1.491

Question: What about the “Average SRB 72 h” value ([1]; CALU-1 Run 3, 0.1 μg/ml CDDP, 72 h) of the same molecule?
Answer: 1.835

Question: And the “Average SRB 24 h” value ([1]; CALU-1 Run 3, 1 μg/ml CDDP, 24 h)?
Answer: 1.295

Question: What about the “Average SRB 48 h” value ([1]; CALU-1 Run 3, 1 μg/ml CDDP, 48 h) of the same molecule?
Answer: 1.463

Question: What about the “Average SRB 72 h” value ([1]; CALU-1 Run 3, 1 μg/ml CDDP, 72 h) of the same molecule?
Answer: 1.452

Question: And the “Average SRB 24 h” value ([1]; CALU-1 Run 3, 10 μg/ml CDDP, 24 h)?
Answer: 1.139

Question: And the “Average SRB 48 h” value ([1]; CALU-1 Run 3, 10 μg/ml CDDP, 48 h)?
Answer: 1.152

Question: What about the “Average SRB 72 h” value ([1]; CALU-1 Run 3, 10 μg/ml CDDP, 72 h) of the same molecule?
Answer: 1.193

Question: What about the “Average SRB 24 h” value ([1]; CALU-1 Run 3, 100 μg/ml CDDP, 24 h) of the same molecule?
Answer: 0.98

Question: And the “Average SRB 48 h” value ([1]; CALU-1 Run 3, 100 μg/ml CDDP, 48 h)?
Answer: 1.449

Question: What about the “Average SRB 72 h” value ([1]; CALU-1 Run 3, 100 μg/ml CDDP, 72 h) of the same molecule?
Answer: 1.264

Question: What about the “CVE Average” value (HT55 (colorectal cancer); HT55, Run 1, 24 h, 0.1 μg/ml CDDP) of the same molecule?
Answer: 0.838

Question: And the “CVE Average” value (HT55 (colorectal cancer); HT55, Run 1, 24 h, 1 μg/ml CDDP)?
Answer: 0.557

Question: And the “CVE Average” value (HT55 (colorectal cancer); HT55, Run 1, 24 h, 10 μg/ml CDDP)?
Answer: 0.728

Question: What about the “CVE Average” value (HT55 (colorectal cancer); HT55, Run 1, 24 h, 100 μg/ml CDDP) of the same molecule?
Answer: 0.383

Question: And the “CVE Average” value (HT55 (colorectal cancer); HT55, Run 1, 48 h, 0.1 μg/ml CDDP)?
Answer: 0.588

Question: What about the “CVE Average” value (HT55 (colorectal cancer); HT55, Run 1, 48 h, 1 μg/ml CDDP) of the same molecule?
Answer: 0.314

Question: What about the “CVE Average” value (HT55 (colorectal cancer); HT55, Run 1, 48 h, 10 μg/ml CDDP) of the same molecule?
Answer: 0.405

Question: And the “CVE Average” value (HT55 (colorectal cancer); HT55, Run 1, 48 h, 100 μg/ml CDDP)?
Answer: 0.269

Question: And the “CVE Average” value (HT55 (colorectal cancer); HT55, Run 1, 72 h, 0.1 μg/ml CDDP)?
Answer: 0.901

Question: What about the “CVE Average” value (HT55 (colorectal cancer); HT55, Run 1, 72 h, 1 μg/ml CDDP) of the same molecule?
Answer: 0.437

Question: What about the “CVE Average” value (HT55 (colorectal cancer); HT55, Run 1, 72 h, 10 μg/ml CDDP) of the same molecule?
Answer: 0.436

Question: And the “CVE Average” value (HT55 (colorectal cancer); HT55, Run 1, 72 h, 100 μg/ml CDDP)?
Answer: 0.243

Question: And the “CVE Average” value (HT55 (colorectal cancer); HT55 Run 2, 24 h, 0.1 μg/ml CDDP)?
Answer: 1.745

Question: What about the “CVE Average” value (HT55 (colorectal cancer); HT55 Run 2, 24 h, 1 μg/ml CDDP) of the same molecule?
Answer: 0.942

Question: And the “CVE Average” value (HT55 (colorectal cancer); HT55 Run 2, 24 h, 10 μg/ml CDDP)?
Answer: 1.075

Question: What about the “CVE Average” value (HT55 (colorectal cancer); HT55 Run 2, 24 h, 100 μg/ml CDDP) of the same molecule?
Answer: 0.758

Question: What about the “CVE Average” value (HT55 (colorectal cancer); HT55 Run 2, 48 h, 0.1 μg/ml CDDP) of the same molecule?
Answer: 0.793

Question: What about the “CVE Average” value (HT55 (colorectal cancer); HT55 Run 2, 48 h, 1 μg/ml CDDP) of the same molecule?
Answer: 0.23

Question: What about the “CVE Average” value (HT55 (colorectal cancer); HT55 Run 2, 48 h, 10 μg/ml CDDP) of the same molecule?
Answer: 0.281

Question: And the “CVE Average” value (HT55 (colorectal cancer); HT55 Run 2, 48 h, 100 μg/ml CDDP)?
Answer: 0.286

Question: What about the “CVE Average” value (HT55 (colorectal cancer); HT55 Run 2, 72 h, 0.1 μg/ml CDDP) of the same molecule?
Answer: 0.937

Question: What about the “CVE Average” value (HT55 (colorectal cancer); HT55 Run 2, 72 h, 1 μg/ml CDDP) of the same molecule?
Answer: 0.395

Question: And the “CVE Average” value (HT55 (colorectal cancer); HT55 Run 2, 72 h, 10 μg/ml CDDP)?
Answer: 0.326

Question: What about the “CVE Average” value (HT55 (colorectal cancer); HT55 Run 2, 72 h, 100 μg/ml CDDP) of the same molecule?
Answer: 0.244

Question: What about the “CVE Average” value (HT55 (colorectal cancer); HT55 Run 3, 24 h, 0.1 μg/ml CDDP) of the same molecule?
Answer: 0.591

Question: What about the “CVE Average” value (HT55 (colorectal cancer); HT55 Run 3, 24 h, 1 μg/ml CDDP) of the same molecule?
Answer: 0.201

Question: And the “CVE Average” value (HT55 (colorectal cancer); HT55 Run 3, 24 h, 10 μg/ml CDDP)?
Answer: 0.812

Question: What about the “CVE Average” value (HT55 (colorectal cancer); HT55 Run 3, 24 h, 100 μg/ml CDDP) of the same molecule?
Answer: 0.15

Question: What about the “CVE Average” value (HT55 (colorectal cancer); HT55 Run 3, 48 h, 0.1 μg/ml CDDP) of the same molecule?
Answer: 1.099

Question: And the “CVE Average” value (HT55 (colorectal cancer); HT55 Run 3, 48 h, 1 μg/ml CDDP)?
Answer: 0.561

Question: And the “CVE Average” value (HT55 (colorectal cancer); HT55 Run 3, 48 h, 10 μg/ml CDDP)?
Answer: 1.712

Question: What about the “CVE Average” value (HT55 (colorectal cancer); HT55 Run 3, 48 h, 100 μg/ml CDDP) of the same molecule?
Answer: 0.285

Question: What about the “CVE Average” value (HT55 (colorectal cancer); HT55 Run 3, 72 h, 0.1 μg/ml CDDP) of the same molecule?
Answer: 1.228

Question: What about the “CVE Average” value (HT55 (colorectal cancer); HT55 Run 3, 72 h, 1 μg/ml CDDP) of the same molecule?
Answer: 0.577

Question: What about the “CVE Average” value (HT55 (colorectal cancer); HT55 Run 3, 72 h, 10 μg/ml CDDP) of the same molecule?
Answer: 2.329

Question: And the “CVE Average” value (HT55 (colorectal cancer); HT55 Run 3, 72 h, 100 μg/ml CDDP)?
Answer: 0.431
